# Measurements as given in patent publication US20240209027A1, “PEPTIDE AND PEPTIDE-CONTAINING COMPOSITION” (PeptiAID Inc.,, priority 2021, published 2024).
# Starred links: 1 amine or outer side, 2 acyl side, 3 side chain; linkers in the order of their positions; H or OH if unused. Positions of bridges follow the written chain, without caps; N, C: chain ends. Non-standard residues stand in square brackets, D forms with d. Residues, ends and D or L forms follow the SMILES beside them. ξ: configuration not given here. *: point of attachment. X6 = O=C(O)CCCCCCCCC(=O)N[C@@H](CCC(=O)N[C@@H](CCCCN*)C(=O)O)C(=O)O; Ala(piperidin-4-yl) = O=C([C@H](CC1CCN([*:3])CC1)N[*:1])[*:2]; Ala(indan-2-yl) = N[C@@H](CC1Cc2ccccc2C1)C(=O)O; Phe(4-COOH) = N[C@@H](Cc1ccc(C(=O)O)cc1)C(=O)O; X3 = O=C(O)CN1CCC(N[*:1])(C(=O)[*:2])CC1; Phe(4-F) = N[C@@H](Cc1ccc(F)cc1)C(=O)O; C12 diacid = O=C(O)CCCCCCCCCCC(=O)*; 3Pal = N[C@@H](Cc1cccnc1)C(=O)O; NMeE = CN[C@@H](CCC(=O)O)C(=O)O; Cha = N[C@@H](CC1CCCCC1)C(=O)O; Cit = NC(=O)NCCC[C@H](N)C(=O)O; dNMeD = CN[C@H](CC(=O)O)C(=O)O; NMeNle = CCCC[C@H](NC)C(=O)O; ξαMeS = CC(N)(CO)C(=O)O; PEG2 = NCCOCCOCCC(=O)O; Aib = CC(C)(N)C(=O)O
# Tested on: SARS-CoV-2-derived S protein, Delta strain
# Format: cell-based
# Details: Table 12
SMILES,IC50 [nM],Imax: % (at 500 nM) [%]
CCCC[C@H]1C(=O)NC(C)(C)C(=O)N[C@@H](CC2CCCCC2)C(=O)N[C@@H](Cc2ccc(F)cc2)C(=O)N(C)[C@H](CC(=O)O)C(=O)N[C@@H](Cc2ccc(O)cc2)C(=O)N[C@@H](Cc2ccc(O)cc2)C(=O)N[C@@H](Cc2ccc(C(=O)O)cc2)C(=O)N[C@@H](CC2CCNCC2)C(=O)N[C@@H](CC2CCCCC2)C(=O)N[C@H](C(=O)N[C@H](CCC(=O)O)C(N)=O)CSCC(=O)N(C)[C@@H](CCC(=O)O)C(=O)N1C [Peptide 5555_p176] ({CH2CO}-[NMeE][NMeNle][Aib][Cha][Phe(4-F)][dNMeD]YY[Phe(4-COOH)][Ala(piperidin-4-yl)][Cha]C[dE]-NH2; thioether N-12),0.6,100
CCCC[C@H]1C(=O)NC(C)(C)C(=O)N[C@@H](CC2CCCCC2)C(=O)N[C@@H](Cc2ccc(F)cc2)C(=O)N2CCC[C@H]2C(=O)N[C@@H](Cc2ccc(O)cc2)C(=O)N[C@@H](Cc2ccc(O)cc2)C(=O)N[C@@H](CCCNC(N)=O)C(=O)N[C@H](CCCCN)C(=O)N[C@@H](CC2CCCCC2)C(=O)N[C@H](C(=O)N[C@H](CCC(=O)O)C(N)=O)CSCC(=O)N(C)[C@@H](CCC(=O)O)C(=O)N1C [Peptide 5555_p188] ({CH2CO}-[NMeE][NMeNle][Aib][Cha][Phe(4-F)]PYY[Cit][dK][Cha]C[dE]-NH2; thioether N-12),0.4,101
CCCC[C@H]1C(=O)NC(C)(C)C(=O)N[C@@H](CC2Cc3ccccc3C2)C(=O)N[C@@H](Cc2ccc(F)cc2)C(=O)N[C@H](CC(=O)O)C(=O)N[C@@H](Cc2ccc(O)cc2)C(=O)N[C@@H](Cc2ccc(O)cc2)C(=O)N[C@@H](CCCNC(N)=O)C(=O)N[C@H](CCCCN)C(=O)N[C@@H](CC2CCCCC2)C(=O)N[C@H](C(=O)N[C@H](CCC(=O)O)C(N)=O)CSCC(=O)N[C@@H](Cc2cccnc2)C(=O)N1C [Peptide 5555_p178] ({CH2CO}-[3Pal][NMeNle][Aib][Ala(indan-2-yl)][Phe(4-F)][dD]YY[Cit][dK][Cha]C[dE]-NH2; thioether N-12),1.9,100
CCCC[C@H]1C(=O)NC(C)(C)C(=O)N[C@@H](CC2CCCCC2)C(=O)N[C@@H](Cc2ccc(F)cc2)C(=O)N[C@H](CC(=O)O)C(=O)N[C@@H](Cc2ccc(O)cc2)C(=O)N[C@@H](Cc2ccc(O)cc2)C(=O)N[C@@H](CCCNC(N)=O)C(=O)N[C@H](CCCCN)C(=O)N[C@@H](CC2CCCCC2)C(=O)N[C@H](C(=O)N[C@H](CCC(=O)O)C(=O)NCCOCCOCCC(=O)N[C@H](CCCCNC(=O)CCCCCCCCCCC(=O)O)C(N)=O)CSCC(=O)N(C)[C@@H](CCC(=O)O)C(=O)N1C [Peptide 5555_p227] ({CH2CO}-[NMeE][NMeNle][Aib][Cha][Phe(4-F)][dD]YY[Cit][dK][Cha]C[dE][PEG2][dK](C12 diacid)-NH2; thioether N-12),1.9,100
CCCC[C@H]1C(=O)NC(C)(C)C(=O)N[C@@H](CC2CCCCC2)C(=O)N[C@@H](Cc2ccc(F)cc2)C(=O)N[C@H](CC(=O)O)C(=O)N[C@@H](Cc2ccc(O)cc2)C(=O)N[C@@H](Cc2ccc(O)cc2)C(=O)N[C@@H](CCCNC(N)=O)C(=O)N[C@H](CCCCN)C(=O)N[C@@H](CC2CCCCC2)C(=O)N[C@H](C(=O)N[C@H](CCC(=O)O)C(=O)NCCCC[C@H](NC(=O)CC[C@H](NC(=O)CCCCCCCCC(=O)O)C(=O)O)C(=O)O)CSCC(=O)N(C)[C@@H](CCC(=O)O)C(=O)N1C [Peptide 5555_p233] ({CH2CO}-[NMeE][NMeNle][Aib][Cha][Phe(4-F)][dD]YY[Cit][dK][Cha]C[dE]-X6; thioether N-12),4.2,99
CCCC[C@H]1C(=O)NC(C)(C)C(=O)N[C@@H](CC2Cc3ccccc3C2)C(=O)N[C@@H](Cc2ccc(F)cc2)C(=O)N2CCC[C@H]2C(=O)N[C@@H](Cc2ccc(O)cc2)C(=O)N[C@@H](Cc2ccc(O)cc2)C(=O)N[C@@H](Cc2ccc(C(=O)O)cc2)C(=O)N[C@@H](CC2CCNCC2)C(=O)N[C@@H](CC2CCCCC2)C(=O)N[C@H](C(=O)N[C@H](CCC(=O)O)C(N)=O)CSCC(=O)N(C)[C@@H](CCC(=O)O)C(=O)N1C [Peptide 5555_p201] ({CH2CO}-[NMeE][NMeNle][Aib][Ala(indan-2-yl)][Phe(4-F)]PYY[Phe(4-COOH)][Ala(piperidin-4-yl)][Cha]C[dE]-NH2; thioether N-12),0.7,101
CCCC[C@H]1C(=O)NC(C)(C)C(=O)N[C@@H](CC2Cc3ccccc3C2)C(=O)N[C@@H](Cc2ccc(F)cc2)C(=O)NC(C)(CO)C(=O)N[C@@H](Cc2ccc(O)cc2)C(=O)N[C@@H](Cc2ccc(O)cc2)C(=O)N[C@@H](Cc2ccc(C(=O)O)cc2)C(=O)N[C@@H](CC2CCNCC2)C(=O)N[C@@H](CC2CCCCC2)C(=O)N[C@H](C(=O)N[C@H](CCC(=O)O)C(N)=O)CSCC(=O)N(C)[C@@H](CCC(=O)O)C(=O)N1C (some centres unmarked) [Peptide 5555_p197] ({CH2CO}-[NMeE][NMeNle][Aib][Ala(indan-2-yl)][Phe(4-F)][ξαMeS]YY[Phe(4-COOH)][Ala(piperidin-4-yl)][Cha]C[dE]-NH2; thioether N-12),0.4,101
CCCC[C@H]1C(=O)NC(C)(C)C(=O)N[C@@H](CC2CCCCC2)C(=O)N[C@@H](Cc2ccc(F)cc2)C(=O)N[C@H](CC(=O)O)C(=O)N[C@@H](Cc2ccc(O)cc2)C(=O)N[C@@H](Cc2ccc(O)cc2)C(=O)N[C@@H](Cc2ccc(C(=O)O)cc2)C(=O)N[C@@H](CC2CCNCC2)C(=O)N[C@@H](CC2CCCCC2)C(=O)N[C@H](C(=O)N[C@H](CCC(=O)O)C(N)=O)CSCC(=O)N[C@@H](Cc2cccnc2)C(=O)N1C [Peptide 5555_p195] ({CH2CO}-[3Pal][NMeNle][Aib][Cha][Phe(4-F)][dD]YY[Phe(4-COOH)][Ala(piperidin-4-yl)][Cha]C[dE]-NH2; thioether N-12),2.3,101
CCCC[C@H]1C(=O)NC(C)(C)C(=O)N[C@@H](CC2Cc3ccccc3C2)C(=O)N[C@@H](Cc2ccc(F)cc2)C(=O)NC2(CCN(CC(=O)O)CC2)C(=O)N[C@@H](Cc2ccc(O)cc2)C(=O)N[C@@H](Cc2ccc(O)cc2)C(=O)N[C@@H](Cc2ccc(C(=O)O)cc2)C(=O)N[C@@H](CC2CCNCC2)C(=O)N[C@@H](CC2CCCCC2)C(=O)N[C@H](C(=O)N[C@H](CCC(=O)O)C(N)=O)CSCC(=O)N(C)[C@@H](CCC(=O)O)C(=O)N1C [Peptide 5555_p196] ({CH2CO}-[NMeE][NMeNle][Aib][Ala(indan-2-yl)][Phe(4-F)][X3]YY[Phe(4-COOH)][Ala(piperidin-4-yl)][Cha]C[dE]-NH2; thioether N-12),0.8,101
CCCC[C@H]1C(=O)NC(C)(C)C(=O)N[C@@H](CC2CCCCC2)C(=O)N[C@@H](Cc2ccc(F)cc2)C(=O)NC2(CCN(CC(=O)O)CC2)C(=O)N[C@@H](Cc2ccc(O)cc2)C(=O)N[C@@H](Cc2ccc(O)cc2)C(=O)N[C@@H](Cc2ccc(C(=O)O)cc2)C(=O)N[C@@H](CC2CCNCC2)C(=O)N[C@@H](CC2CCCCC2)C(=O)N[C@H](C(=O)N[C@H](CCC(=O)O)C(N)=O)CSCC(=O)N(C)[C@@H](CCC(=O)O)C(=O)N1C [Peptide 5555_p173] ({CH2CO}-[NMeE][NMeNle][Aib][Cha][Phe(4-F)][X3]YY[Phe(4-COOH)][Ala(piperidin-4-yl)][Cha]C[dE]-NH2; thioether N-12),0.6,100
